{"source": "ChEMBL document CHEMBL1201862", "about": "“PubChem BioAssay data set” (2004)", "assay_in_all_cases": "inhibition of tumour cell growth, NCI panel, 48 h", "key": {"DU-145": {"tested_on": "DU-145"}, "MOLT-4": {"tested_on": "MOLT-4"}, "OVCAR-8": {"tested_on": "OVCAR-8"}, "SK-MEL-2": {"tested_on": "SK-MEL-2"}, "MCF7": {"tested_on": "MCF7"}, "LOX IMVI": {"tested_on": "LOX IMVI"}, "NCI-H23": {"tested_on": "NCI-H23"}, "RXF 393": {"tested_on": "RXF 393"}, "HOP-62": {"tested_on": "HOP-62"}, "UACC-257": {"tested_on": "UACC-257"}, "786-0": {"tested_on": "786-0"}, "NCI-H226": {"tested_on": "NCI-H226"}, "OVCAR-4": {"tested_on": "OVCAR-4"}, "SK-OV-3": {"tested_on": "SK-OV-3"}, "T47D": {"tested_on": "T47D"}, "SK-MEL-5": {"tested_on": "SK-MEL-5"}, "UACC-62": {"tested_on": "UACC-62"}, "ACHN": {"tested_on": "ACHN"}, "PC-3": {"tested_on": "PC-3"}, "HL-60": {"tested_on": "HL-60"}}, "note": "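Values below derive from 48-hour exposures of cells grown in 96-well plates, with endpoints linearly interpolated between the two concentrations bracketing the appropriate inhibition level. At the GI50, growth is halved.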 The source made the active and inactive calls. Rule as the data show it: active = GI50 up to about 1.1 µM and inactive = higher."}
{"molecule": "COc1cnnc2c(C)c(-c3ccccc3)nn12", "values": [{"measurement": "GI50", "setting": "DU-145", "result": "24300 nM (inactive)"}, {"measurement": "GI50", "setting": "MOLT-4", "result": "> 83600 nM (inactive)"}, {"measurement": "GI50", "setting": "OVCAR-8", "result": "> 100000 nM (inactive)"}, {"measurement": "GI50", "setting": "SK-MEL-2", "result": "40400 nM (inactive)"}, {"measurement": "GI50", "setting": "MCF7", "result": "> 100000 nM (inactive)"}, {"measurement": "GI50", "setting": "LOX IMVI", "result": "> 100000 nM (inactive)"}, {"measurement": "GI50", "setting": "NCI-H23", "result": "> 100000 nM (inactive)"}, {"measurement": "GI50", "setting": "RXF 393", "result": "436 nM (active)"}, {"measurement": "GI50", "setting": "HOP-62", "result": "> 69300 nM (inactive)"}, {"measurement": "GI50", "setting": "UACC-257", "result": "> 90800 nM (inactive)"}, {"measurement": "GI50", "setting": "786-0", "result": "> 84900 nM (inactive)"}, {"measurement": "GI50", "setting": "NCI-H226", "result": "> 100000 nM (inactive)"}, {"measurement": "GI50", "setting": "OVCAR-4", "result": "> 79400 nM (inactive)"}, {"measurement": "GI50", "setting": "SK-OV-3", "result": "47600 nM (inactive)"}, {"measurement": "GI50", "setting": "T47D", "result": "2600 nM (inactive)"}, {"measurement": "GI50", "setting": "SK-MEL-5", "result": "> 75500 nM (inactive)"}, {"measurement": "GI50", "setting": "UACC-62", "result": "42400 nM (inactive)"}, {"measurement": "GI50", "setting": "ACHN", "result": "68900 nM (inactive)"}, {"measurement": "GI50", "setting": "PC-3", "result": "> 86500 nM (inactive)"}, {"measurement": "GI50", "setting": "HL-60", "result": "> 100000 nM (inactive)"}]}
{"molecule": "CCCC(=O)Nc1cc(/C=C/C(=O)N2CC(CCl)c3ccc(N)cc32)n(C)c1", "note": "(stereo not given)", "values": [{"measurement": "GI50", "setting": "DU-145", "result": "36.1 nM (active)"}, {"measurement": "GI50", "setting": "MOLT-4", "result": "170 nM (active)"}, {"measurement": "GI50", "setting": "OVCAR-8", "result": "267 nM (active)"}, {"measurement": "GI50", "setting": "SK-MEL-2", "result": "212 nM (active)"}, {"measurement": "GI50", "setting": "MCF7", "result": "122 nM (active)"}, {"measurement": "GI50", "setting": "LOX IMVI", "result": "148 nM (active)"}, {"measurement": "GI50", "setting": "NCI-H23", "result": "145 nM (active)"}, {"measurement": "GI50", "setting": "RXF 393", "result": "47.4 nM (active)"}, {"measurement": "GI50", "setting": "HOP-62", "result": "484 nM (active)"}, {"measurement": "GI50", "setting": "UACC-257", "result": "195 nM (active)"}, {"measurement": "GI50", "setting": "786-0", "result": "107 nM (active)"}, {"measurement": "GI50", "setting": "NCI-H226", "result": "282 nM (active)"}, {"measurement": "GI50", "setting": "OVCAR-4", "result": "188 nM (active)"}, {"measurement": "GI50", "setting": "SK-OV-3", "result": "470 nM (active)"}, {"measurement": "GI50", "setting": "T47D", "result": "158 nM (active)"}, {"measurement": "GI50", "setting": "SK-MEL-5", "result": "110 nM (active)"}, {"measurement": "GI50", "setting": "UACC-62", "result": "92 nM (active)"}, {"measurement": "GI50", "setting": "ACHN", "result": "24.8 nM (active)"}, {"measurement": "GI50", "setting": "PC-3", "result": "215 nM (active)"}, {"measurement": "GI50", "setting": "HL-60", "result": "206 nM (active)"}]}
{"molecule": "COc1cc2c(/C=C3/C(=O)N(C)c4ccc(O)cc43)c(Cl)[nH]c2cc1C", "values": [{"measurement": "GI50", "setting": "DU-145", "result": "655 nM (active)"}, {"measurement": "GI50", "setting": "MOLT-4", "result": "209 nM (active)"}, {"measurement": "GI50", "setting": "OVCAR-8", "result": "597 nM (active)"}, {"measurement": "GI50", "setting": "SK-MEL-2", "result": "641 nM (active)"}, {"measurement": "GI50", "setting": "MCF7", "result": "502 nM (active)"}, {"measurement": "GI50", "setting": "LOX IMVI", "result": "594 nM (active)"}, {"measurement": "GI50", "setting": "NCI-H23", "result": "329 nM (active)"}, {"measurement": "GI50", "setting": "RXF 393", "result": "475 nM (active)"}, {"measurement": "GI50", "setting": "HOP-62", "result": "327 nM (active)"}, {"measurement": "GI50", "setting": "UACC-257", "result": "2250 nM (inactive)"}, {"measurement": "GI50", "setting": "786-0", "result": "362 nM (active)"}, {"measurement": "GI50", "setting": "NCI-H226", "result": "516 nM (active)"}, {"measurement": "GI50", "setting": "OVCAR-4", "result": "1800 nM (inactive)"}, {"measurement": "GI50", "setting": "SK-OV-3", "result": "326 nM (active)"}, {"measurement": "GI50", "setting": "T47D", "result": "3410 nM (inactive)"}, {"measurement": "GI50", "setting": "SK-MEL-5", "result": "282 nM (active)"}, {"measurement": "GI50", "setting": "UACC-62", "result": "281 nM (active)"}, {"measurement": "GI50", "setting": "ACHN", "result": "532 nM (active)"}, {"measurement": "GI50", "setting": "PC-3", "result": "1380 nM (inactive)"}, {"measurement": "GI50", "setting": "HL-60", "result": "281 nM (active)"}]}
